Patent US20080004274A1, “Novel biaromatic compounds that modulate PPAR type receptors and cosmetic/pharmaceutical compositions comprised thereof” (GALDERMA RESEARCH & DEVELOPMENT, priority 2004, published 2008)

Tests used:
Assay type in all cases: cell-based
PPARα = target: T1, PPARα (Homo sapiens, UniProt Q07869); experiment: Cross-curve PPAR transactivation test, PPARα; conditions: HeLN cells, stable transfectants ERE-βGlob-Luc-SV-Neo and Gal-hPPARα; luciferase; cross curves against reference agonist, Schild regression; n.a. means not active; read-out: PPAR alpha Kd app
T1 construct: the reporter is ERE-βGlob-Luc
T1 sequence (Q07869 200-468 limits assumed): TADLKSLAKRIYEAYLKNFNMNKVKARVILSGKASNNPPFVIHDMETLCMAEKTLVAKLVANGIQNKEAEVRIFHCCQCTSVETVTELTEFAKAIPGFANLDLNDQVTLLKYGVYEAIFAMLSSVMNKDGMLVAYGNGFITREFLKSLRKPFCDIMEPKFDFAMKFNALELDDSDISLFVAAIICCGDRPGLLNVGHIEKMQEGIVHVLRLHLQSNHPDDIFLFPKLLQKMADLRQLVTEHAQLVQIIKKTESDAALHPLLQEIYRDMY
Method: (§1) The activation of the receptors with an agonist (activator) in HeLN cells leads to the expression of a reporter gene, luciferase, which, in the presence of a substrate, generates light. The modulation of the receptors is measured by quantifying the luminescence produced after incubating the cells in the presence of a reference agonist. The ligands displace the agonist from its site. The measurement of the activity is performed by quantifying the light produced. This measurement makes it possible to determine the modulatory activity of the compounds according to the invention by determining the constant that is the affinity of the molecule for the receptor. Since this value can fluctuate depending on the basal activity and the expression of the receptor, it is referred to as Kd apparent (KdApp in nM).
(§2) To determine this constant, “cross curves” of the test product against a reference agonist are produced in a 96-well plate: 10 concentrations of the test product plus a concentration 0 are arranged in a line, and 7 concentrations of the agonist plus a concentration 0 are arranged in a column. This is 88 measurement points for 1 product and 1 receptor. The remaining 8 wells are used for repeatability controls.
(§3) Measurements are also taken for total agonist controls with the same products.
(§4) The HeLN cell lines used are stable transfectants containing the plasmids ERE-βGlob-Luc-SV-Neo (reporter gene) and PPAR (α, δ, γ) Gal-hPPAR. These cells are inoculated into 96-well plates at a rate of 10 000 cells per well in 100 μl of DMEM medium without phenol red and supplemented with 10% of defatted calf serum. The plates are then incubated at 37° C. and 7% CO2 for 16 hours.
(§5) The various dilutions of the test products and of the reference ligand are added at a rate of 5 μl per well. The plates are then incubated for 18 hours at 37° C. and 7% CO2. The culture medium is removed by turning over and 100 μl of a 1:1 PBS/luciferin mixture are added to each well. After 5 minutes, the plates are read by the luminescence detector.

PPARδ = target: T2, PPARδ (Homo sapiens, UniProt Q03181); experiment: Cross-curve PPAR transactivation test, PPARδ; conditions: HeLN cells, stable transfectants ERE-βGlob-Luc-SV-Neo and Gal-hPPARδ; luciferase; cross curves against reference agonist, Schild regression; n.a. means not active; read-out: PPARs delta Kd app
T2 construct: the reporter is ERE-βGlob-Luc
T2 sequence (Q03181 171-441 limits assumed): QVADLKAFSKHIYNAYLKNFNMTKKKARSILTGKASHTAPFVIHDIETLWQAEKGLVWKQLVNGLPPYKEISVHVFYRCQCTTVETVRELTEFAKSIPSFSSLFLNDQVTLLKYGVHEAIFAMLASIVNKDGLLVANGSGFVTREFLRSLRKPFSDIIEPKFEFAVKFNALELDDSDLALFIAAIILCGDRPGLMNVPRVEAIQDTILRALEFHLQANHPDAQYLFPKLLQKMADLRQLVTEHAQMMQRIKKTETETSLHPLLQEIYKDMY
Method: as §1, §2, §3, §4, §5

PPARγ = target: T3, PPARγ (Homo sapiens, UniProt P37231); experiment: Cross-curve PPAR transactivation test, PPARγ; conditions: HeLN cells, stable transfectants ERE-βGlob-Luc-SV-Neo and Gal-hPPARγ; luciferase; cross curves against reference agonist, Schild regression; n.a. means not active; read-out: PPAR gamma Kd app
T3 construct: the reporter is ERE-βGlob-Luc
T3 sequence (P37231 238-505 limits assumed): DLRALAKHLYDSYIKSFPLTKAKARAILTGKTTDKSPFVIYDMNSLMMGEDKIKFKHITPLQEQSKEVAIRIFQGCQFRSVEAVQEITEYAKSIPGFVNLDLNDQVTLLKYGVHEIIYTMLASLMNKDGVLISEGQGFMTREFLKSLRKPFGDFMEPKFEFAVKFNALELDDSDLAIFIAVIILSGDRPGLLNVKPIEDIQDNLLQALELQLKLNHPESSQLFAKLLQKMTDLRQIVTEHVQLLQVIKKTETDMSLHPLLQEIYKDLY
Method: as §1, §2, §3, §4, §5

Kd (PPARα) | Kd (PPARδ) | Kd (PPARγ) | SMILES
2000 nM | 120 nM | 1000 nM | CCCCN1C(=O)/C(=N/NC(=O)Nc2ccccc2)c2cc(SCCc3ccc(C(=O)O)cc3)ccc21 [Example 14, 4-{2-[3-((anilinocarbonyl)hydrazono)-2-oxo-1-butyl-2,3-dihydro-1H-indol-5-ylsulfanyl]ethyl}benzoic acid]
2000 nM | 4000 nM | 500 nM | O=C(N/N=C1\C(=O)N(CCc2ccccc2)c2ccc(SCCc3ccc(C(=O)O)cc3)cc21)Nc1ccccc1 [Example 16, 4-{2-[3-((anilinocarbonyl)hydrazono)-2-oxo-1-phenethyl-2,3-dihydro-1H-indol-5-ylsulfanyl]ethyl}benzoic acid]
250 nM |  | 1000 nM | COC(=O)c1ccc(CCSc2ccc3c(c2)/C(=N\NC(=O)Nc2cccc(F)c2)C(=O)N3CCc2ccccc2)cc1 [Example 17, methyl 4-{2-[3-((3-fluoroanilinocarbonyl)hydrazono)-2-oxo-1-phenethyl-2,3-dihydro-1H-indol-5-ylsulfanyl]ethyl}benzoate]
2000 nM | 250 nM | 500 nM | CCCCN1C(=O)/C(=N\NC(=O)Nc2cccc(F)c2)c2cc(SCCc3ccc(C(=O)O)cc3)ccc21 [Example 18, 4-{2-[3-((3-fluoroanilinocarbonyl)hydrazono)-2-oxo-1-butyl-2,3-dihydro-1H-indol-5-ylsulfanyl]ethyl}benzoic acid]
2000 nM | 500 nM | 1000 nM | CCCCCCCN1C(=O)/C(=N\NC(=O)Nc2cccc(C(F)(F)F)c2)c2cc(SCCc3ccc(C(=O)O)cc3)ccc21 [Example 20, 4-{2-[3-((3-trifluoromethylanilinocarbonyl)hydrazono)-2-oxo-1-heptyl-2,3-dihydro-1H-indol-5-ylsulfanyl]ethyl}benzoic acid]
2000 nM | 60 nM | 1000 nM | CCCCCCCN1C(=O)C(=NNC(=O)Nc2ccccc2Cl)c2cc(SCCc3ccc(C(=O)O)cc3)ccc21 [Example 22, 4-{2-[3((2-chloroanilinocarbonyl)hydrazono)-2-oxo-1-heptyl-2,3-dihydro-1H-indol-5-ylsulfanyl]ethyl}benzoic acid]
8000 nM | 500 nM | 250 nM | O=C(N/N=C1/C(=O)N(CCc2ccccc2)c2ccc(SCCc3ccc(C(=O)O)cc3)cc21)Nc1ccc(C(F)(F)F)cc1Cl [Example 35, 4-{2-[3((2-chloro-4-trifluoromethylanilinocarbonyl)hydrazono)-2-oxo-1-phenethyl-2,3-dihydro-1H-indol-5-ylsulfanyl]ethyl}benzoic acid]
 | 500 nM | 4000 nM | CCCCCCN1C(=O)/C(=N/NC(=O)Nc2ccccc2)c2cc(SCCCc3ccc(C(=O)O)cc3)ccc21 [Example 62, 4-[3-(3-((anilinocarbonyl)hydrazono)-2-oxo-1-hexyl-2,3-dihydro-1H-indol-5-ylsulfanyl)propyl]benzoic acid]
4000 nM | 250 nM | 4000 nM | CCCCCCN1C(=O)/C(=N/NC(=O)Nc2ccc(F)cc2)c2cc(SCCCc3ccc(C(=O)O)cc3)ccc21 [Example 74, 4-[3-(3-((4-fluoroanilinocarbonyl)hydrazono)-2-oxo-1-hexyl-2,3-dihydro-1H-indol-5-ylsulfanyl)propyl]benzoic acid]
500 nM | 30 nM | 1000 nM | CCCCCCCN1C(=O)/C(=N\NC(=O)Nc2ccccc2Cl)c2cc(SCCc3ccc(C(=O)O)cc3)ccc21 [Example 84, 4-{2-[3-((2-chloroanilino)carbonylhydrazono)-2-oxo-1-heptyl-2,3-dihydro-1H-indol-5-ylsulfanyl]ethyl}benzoic acid]
